“And” between values parts separate entries of the source, which are not always exact repeats. Equal values may be shown once. The source made the active and inactive calls. The rule behind the calls is not given here.
Tests used:
[1] = Cytotoxicity against human Cal27CisR cells assessed as cell survival after 72 hrs by MTT assay; type: functional, cell-based
[2] = biological target: Histone deacetylase 3/Nuclear receptor corepressor 2 (HDAC3/NCoR2) (Homo sapiens, UniProt O15379); assay: Inhibition of full length human recombinant C-terminal His-tagged HDAC3/NcoR2 expressed in baculovirus infected Sf9 insect cells using Boc-Lys(epsilon-Ac)-AMC as substrate measured after 90 mins by fluorescence assay
[3] = biological target: T1, Histone deacetylase 1/2/3/6 (Homo sapiens, UniProt Q13547+O15379+Q9UBN7+Q92769); assay: Inhibition of HDAC1/2/3/6 in human A2780 cells using Boc-Lys(epsilon-Ac)-AMC as substrate preincubated for 18 hrs followed by substrate addition measured after 3 hrs by fluorescence assay; type: cell-based
[4] = biological target: T2, Histone deacetylase 1/2/3 (Homo sapiens) (UniProt Q13547+O15379+Q92769); assay: Inhibition of HDAC1/2/3 in human Cal27CisR cells assessed as increase in acetylation of histone H3 at 10 uM after 24 hrs by Western blot method; type: cell-based
[5] = biological target: T1, Histone deacetylase 1/2/3/6; assay: Inhibition of HDAC1/2/3/6 in human A2780cisR cells using Boc-Lys(epsilon-Ac)-AMC as substrate preincubated for 18 hrs followed by substrate addition measured after 3 hrs by fluorescence assay; type: cell-based
[6] = biological target: T1, Histone deacetylase 1/2/3/6; assay: Inhibition of HDAC1/2/3/6 in human Cal27CisR cells assessed as potentiation of cisplatin-induced apoptosis at 250 to 500 nM preincubated for 48 hrs followed by cisplatin addition by flow cytomertry assay; type: cell-based
[7] = biological target: Histone deacetylase 2 (Homo sapiens, UniProt Q92769); assay: Inhibition of full length human recombinant C-terminal FLAG-tagged HDAC2 expressed in baculovirus infected Sf9 insect cells using Boc-Lys(epsilon-Ac)-AMC as substrate measured after 90 mins by fluorescence assay; type: cell-based
[8] = Apparent permeability in MDCK cells; type: ADME, cell-based, Canis lupus familiaris; settings: dog
[9] = system: CAL-27; assay: Cytotoxicity against human CAL27 cells assessed as cell survival after 72 hrs by MTT assay; type: functional, cell-based; settings: CAL-27, 72 h
[10] = biological target: T1, Histone deacetylase 1/2/3/6; assay: Inhibition of HDAC1/2/3/6 in human Cal27CisR cells assessed as potentiation of cisplatin-induced cytotoxicity preincubated for 48 hrs followed by cisplatin addition measured after 72 hrs by MTT assay relative to control; type: cell-based
[11] = Induction of apoptosis in human Cal27CisR cells at 250 to 500 nM incubated for 48 hrs by flow cytometry assay; type: cell-based; settings: 0.5 µM
[12] = Apparent permeability in human Caco2 cells; type: ADME, cell-based, Caco-2; settings: caco-2
[13] = biological target: T3, Protein deacetylase HDAC6 (Homo sapiens, UniProt Q9UBN7); assay: Inhibition of N-terminal GST-tagged recombinant human HDAC6 expressed in baculovirus infected Sf9 insect cells using Z-(Ac)Lys-AMC as substrate measured after 90 mins by fluorescence assay
T3 sequence (Q9UBN7 whole entry): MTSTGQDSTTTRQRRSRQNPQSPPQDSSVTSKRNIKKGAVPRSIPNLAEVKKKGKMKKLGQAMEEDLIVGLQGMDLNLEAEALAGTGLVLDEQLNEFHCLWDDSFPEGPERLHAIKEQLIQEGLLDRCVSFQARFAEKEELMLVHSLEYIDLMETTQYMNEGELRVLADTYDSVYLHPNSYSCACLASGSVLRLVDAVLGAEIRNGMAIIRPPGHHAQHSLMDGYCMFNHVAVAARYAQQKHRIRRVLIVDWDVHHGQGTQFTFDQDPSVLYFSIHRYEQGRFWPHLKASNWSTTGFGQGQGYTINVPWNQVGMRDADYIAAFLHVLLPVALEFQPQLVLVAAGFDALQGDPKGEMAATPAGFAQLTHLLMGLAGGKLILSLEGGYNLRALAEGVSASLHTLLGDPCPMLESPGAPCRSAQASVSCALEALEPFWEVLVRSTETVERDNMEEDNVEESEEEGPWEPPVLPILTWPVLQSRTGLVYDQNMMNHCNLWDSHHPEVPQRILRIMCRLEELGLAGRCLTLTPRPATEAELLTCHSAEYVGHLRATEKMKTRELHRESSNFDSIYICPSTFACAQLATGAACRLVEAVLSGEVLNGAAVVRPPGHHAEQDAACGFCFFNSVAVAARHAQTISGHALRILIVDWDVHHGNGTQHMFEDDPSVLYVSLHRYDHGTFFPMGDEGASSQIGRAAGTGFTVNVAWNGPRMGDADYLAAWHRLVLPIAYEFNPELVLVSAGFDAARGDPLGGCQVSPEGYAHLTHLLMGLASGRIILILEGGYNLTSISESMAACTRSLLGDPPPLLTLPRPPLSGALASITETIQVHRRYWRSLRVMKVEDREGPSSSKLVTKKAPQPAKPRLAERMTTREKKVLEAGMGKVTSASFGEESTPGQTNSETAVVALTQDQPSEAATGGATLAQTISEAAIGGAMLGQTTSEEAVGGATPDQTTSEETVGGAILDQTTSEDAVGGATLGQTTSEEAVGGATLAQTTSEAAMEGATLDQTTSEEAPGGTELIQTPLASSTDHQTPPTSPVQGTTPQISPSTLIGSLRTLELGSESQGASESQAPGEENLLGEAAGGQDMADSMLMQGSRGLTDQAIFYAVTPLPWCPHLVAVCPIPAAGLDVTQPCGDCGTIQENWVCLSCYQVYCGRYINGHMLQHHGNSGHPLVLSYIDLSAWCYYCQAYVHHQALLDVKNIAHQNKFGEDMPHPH

[14] = biological target: T4, Protein deacetylase HDAC6 (Homo sapiens) (UniProt Q9UBN7); assay: Inhibition of HDAC6 in human Cal27CisR cells assessed as increase in acetylation of alpha-tubulin at 10 uM after 24 hrs by Western blot method; type: cell-based
T4 sequence (whole entry): T3 sequence (Q9UBN7 whole entry)

[15] = biological target: T5, Histone deacetylase 8 (Homo sapiens, UniProt Q9BY41); assay: Inhibition of human recombinant HDAC8 expressed in Escherichia coli using Z-L-Lys(epsilon-trifluoroacetyl)-AMC as substrate measured after 90 mins by fluorescence assay
T5 sequence (Q9BY41 whole entry): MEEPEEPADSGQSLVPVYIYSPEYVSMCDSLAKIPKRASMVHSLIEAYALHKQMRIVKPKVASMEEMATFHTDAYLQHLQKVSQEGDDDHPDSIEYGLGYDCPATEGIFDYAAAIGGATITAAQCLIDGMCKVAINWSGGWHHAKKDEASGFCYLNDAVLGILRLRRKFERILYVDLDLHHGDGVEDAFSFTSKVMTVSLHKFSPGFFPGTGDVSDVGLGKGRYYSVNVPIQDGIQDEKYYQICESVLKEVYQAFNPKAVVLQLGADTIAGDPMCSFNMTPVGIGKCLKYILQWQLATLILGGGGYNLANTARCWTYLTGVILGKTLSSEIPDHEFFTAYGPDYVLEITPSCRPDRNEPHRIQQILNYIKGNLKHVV

[16] = system: A2780; assay: Cytotoxicity against human A2780 cells assessed as cell survival after 72 hrs by MTT assay; type: functional, cell-based; settings: A2780, 72 h
[17] = biological target: T1, Histone deacetylase 1/2/3/6; assay: Inhibition of HDAC1/2/3/6 in human Cal27 cells assessed as potentiation of cisplatin-induced apoptosis at 250 to 500 nM preincubated for 48 hrs followed by cisplatin addition by flow cytomertry assay; type: cell-based
[18] = biological target: T4, Protein deacetylase HDAC6 (Homo sapiens); assay: Inhibition of HDAC6 in human Cal27 cells assessed as increase in acetylation of alpha-tubulin at 10 uM after 24 hrs by Western blot method; type: cell-based
[19] = biological target: T1, Histone deacetylase 1/2/3/6; assay: Inhibition of HDAC1/2/3/6 in human Cal27 cells using Boc-Lys(epsilon-Ac)-AMC as substrate preincubated for 18 hrs followed by substrate addition measured after 3 hrs by fluorescence assay; type: cell-based
[20] = biological target: T2, Histone deacetylase 1/2/3 (Homo sapiens); assay: Inhibition of HDAC1/2/3 in human Cal27 cells assessed as increase in acetylation of histone H3 at 10 uM after 24 hrs by Western blot method; type: cell-based
[21] = system: CAL-27; assay: Induction of apoptosis in human CAL27 cells at 250 to 500 nM incubated for 48 hrs by flow cytometry assay; type: cell-based; settings: cal-27, 48 h, 0.5 µM
[22] = biological target: T1, Histone deacetylase 1/2/3/6; assay: Inhibition of HDAC1/2/3/6 in human CAL27 cells assessed as potentiation of cisplatin-induced cytotoxicity preincubated for 48 hrs followed by cisplatin addition measured after 72 hrs by MTT assay relative to control; type: cell-based
[23] = biological target: Histone deacetylase 1 (Homo sapiens, UniProt Q13547); assay: Inhibition of C-terminal FLAG/His-tagged recombinant human HDAC1 expressed in baculovirus infected Sf9 insect cells using Z-(Ac)Lys-AMC as substrate measured after 90 mins by fluorescence assay
[24] = system: A2780cisR; assay: Cytotoxicity against human A2780cisR cells assessed as cell survival after 72 hrs by MTT assay; type: functional, cell-based
[25] = biological target: T1, Histone deacetylase 1/2/3/6; assay: Inhibition of HDAC1/2/3/6 in human Cal27CisR cells using Boc-Lys(epsilon-Ac)-AMC as substrate preincubated for 18 hrs followed by substrate addition measured after 3 hrs by fluorescence assay; type: cell-based

T1 sequence (O15379 whole entry, looked up, one chain of several): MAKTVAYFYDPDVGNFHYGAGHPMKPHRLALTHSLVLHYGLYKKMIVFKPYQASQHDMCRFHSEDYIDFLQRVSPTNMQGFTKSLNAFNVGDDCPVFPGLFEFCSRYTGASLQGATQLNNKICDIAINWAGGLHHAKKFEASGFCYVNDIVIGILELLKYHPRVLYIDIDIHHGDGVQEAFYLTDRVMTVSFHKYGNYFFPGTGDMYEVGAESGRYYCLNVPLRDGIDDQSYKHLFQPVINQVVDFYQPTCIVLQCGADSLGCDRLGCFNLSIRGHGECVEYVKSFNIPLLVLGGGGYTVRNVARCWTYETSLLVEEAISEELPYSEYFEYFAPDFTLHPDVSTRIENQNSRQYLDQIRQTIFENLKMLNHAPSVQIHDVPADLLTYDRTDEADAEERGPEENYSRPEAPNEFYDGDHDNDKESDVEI
T1 sequence (Q13547 whole entry, looked up, one chain of several): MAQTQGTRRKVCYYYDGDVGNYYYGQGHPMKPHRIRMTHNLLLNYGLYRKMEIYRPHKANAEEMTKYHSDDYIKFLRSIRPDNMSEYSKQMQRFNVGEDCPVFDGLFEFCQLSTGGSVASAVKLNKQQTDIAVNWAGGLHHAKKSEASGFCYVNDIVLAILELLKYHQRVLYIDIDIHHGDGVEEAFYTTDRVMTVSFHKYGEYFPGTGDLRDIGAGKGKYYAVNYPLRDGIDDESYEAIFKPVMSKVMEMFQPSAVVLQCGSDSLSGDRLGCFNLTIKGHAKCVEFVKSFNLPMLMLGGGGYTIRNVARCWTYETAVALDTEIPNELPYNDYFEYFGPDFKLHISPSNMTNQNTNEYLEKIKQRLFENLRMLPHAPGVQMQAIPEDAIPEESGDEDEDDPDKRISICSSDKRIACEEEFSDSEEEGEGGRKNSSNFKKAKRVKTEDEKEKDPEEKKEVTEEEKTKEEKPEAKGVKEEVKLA
T1 sequence (Q92769 whole entry, looked up, one chain of several): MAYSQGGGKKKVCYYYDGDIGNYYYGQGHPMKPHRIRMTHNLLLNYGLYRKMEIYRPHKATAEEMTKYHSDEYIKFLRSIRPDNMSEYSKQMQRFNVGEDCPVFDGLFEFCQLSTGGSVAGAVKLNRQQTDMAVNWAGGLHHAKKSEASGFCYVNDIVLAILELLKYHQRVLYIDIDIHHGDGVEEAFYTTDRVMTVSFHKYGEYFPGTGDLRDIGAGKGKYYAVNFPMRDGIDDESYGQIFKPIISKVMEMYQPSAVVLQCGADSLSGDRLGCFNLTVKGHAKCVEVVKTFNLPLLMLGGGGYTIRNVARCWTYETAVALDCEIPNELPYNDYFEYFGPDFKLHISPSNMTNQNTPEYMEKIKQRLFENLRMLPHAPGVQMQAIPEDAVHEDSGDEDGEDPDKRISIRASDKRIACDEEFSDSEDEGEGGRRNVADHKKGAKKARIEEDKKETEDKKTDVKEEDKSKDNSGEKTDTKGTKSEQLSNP
Histone deacetylase 2, sequence (Q92769 whole entry): as the sequence (Q92769 whole entry, looked up, one chain of several) above
Histone deacetylase 3/Nuclear receptor corepressor 2 (HDAC3/NCoR2), sequence (O15379 whole entry): as the sequence (O15379 whole entry, looked up, one chain of several) above
Histone deacetylase 3/Nuclear receptor corepressor 2 (HDAC3/NCoR2), sequence (Q9Y618 whole entry, further chain): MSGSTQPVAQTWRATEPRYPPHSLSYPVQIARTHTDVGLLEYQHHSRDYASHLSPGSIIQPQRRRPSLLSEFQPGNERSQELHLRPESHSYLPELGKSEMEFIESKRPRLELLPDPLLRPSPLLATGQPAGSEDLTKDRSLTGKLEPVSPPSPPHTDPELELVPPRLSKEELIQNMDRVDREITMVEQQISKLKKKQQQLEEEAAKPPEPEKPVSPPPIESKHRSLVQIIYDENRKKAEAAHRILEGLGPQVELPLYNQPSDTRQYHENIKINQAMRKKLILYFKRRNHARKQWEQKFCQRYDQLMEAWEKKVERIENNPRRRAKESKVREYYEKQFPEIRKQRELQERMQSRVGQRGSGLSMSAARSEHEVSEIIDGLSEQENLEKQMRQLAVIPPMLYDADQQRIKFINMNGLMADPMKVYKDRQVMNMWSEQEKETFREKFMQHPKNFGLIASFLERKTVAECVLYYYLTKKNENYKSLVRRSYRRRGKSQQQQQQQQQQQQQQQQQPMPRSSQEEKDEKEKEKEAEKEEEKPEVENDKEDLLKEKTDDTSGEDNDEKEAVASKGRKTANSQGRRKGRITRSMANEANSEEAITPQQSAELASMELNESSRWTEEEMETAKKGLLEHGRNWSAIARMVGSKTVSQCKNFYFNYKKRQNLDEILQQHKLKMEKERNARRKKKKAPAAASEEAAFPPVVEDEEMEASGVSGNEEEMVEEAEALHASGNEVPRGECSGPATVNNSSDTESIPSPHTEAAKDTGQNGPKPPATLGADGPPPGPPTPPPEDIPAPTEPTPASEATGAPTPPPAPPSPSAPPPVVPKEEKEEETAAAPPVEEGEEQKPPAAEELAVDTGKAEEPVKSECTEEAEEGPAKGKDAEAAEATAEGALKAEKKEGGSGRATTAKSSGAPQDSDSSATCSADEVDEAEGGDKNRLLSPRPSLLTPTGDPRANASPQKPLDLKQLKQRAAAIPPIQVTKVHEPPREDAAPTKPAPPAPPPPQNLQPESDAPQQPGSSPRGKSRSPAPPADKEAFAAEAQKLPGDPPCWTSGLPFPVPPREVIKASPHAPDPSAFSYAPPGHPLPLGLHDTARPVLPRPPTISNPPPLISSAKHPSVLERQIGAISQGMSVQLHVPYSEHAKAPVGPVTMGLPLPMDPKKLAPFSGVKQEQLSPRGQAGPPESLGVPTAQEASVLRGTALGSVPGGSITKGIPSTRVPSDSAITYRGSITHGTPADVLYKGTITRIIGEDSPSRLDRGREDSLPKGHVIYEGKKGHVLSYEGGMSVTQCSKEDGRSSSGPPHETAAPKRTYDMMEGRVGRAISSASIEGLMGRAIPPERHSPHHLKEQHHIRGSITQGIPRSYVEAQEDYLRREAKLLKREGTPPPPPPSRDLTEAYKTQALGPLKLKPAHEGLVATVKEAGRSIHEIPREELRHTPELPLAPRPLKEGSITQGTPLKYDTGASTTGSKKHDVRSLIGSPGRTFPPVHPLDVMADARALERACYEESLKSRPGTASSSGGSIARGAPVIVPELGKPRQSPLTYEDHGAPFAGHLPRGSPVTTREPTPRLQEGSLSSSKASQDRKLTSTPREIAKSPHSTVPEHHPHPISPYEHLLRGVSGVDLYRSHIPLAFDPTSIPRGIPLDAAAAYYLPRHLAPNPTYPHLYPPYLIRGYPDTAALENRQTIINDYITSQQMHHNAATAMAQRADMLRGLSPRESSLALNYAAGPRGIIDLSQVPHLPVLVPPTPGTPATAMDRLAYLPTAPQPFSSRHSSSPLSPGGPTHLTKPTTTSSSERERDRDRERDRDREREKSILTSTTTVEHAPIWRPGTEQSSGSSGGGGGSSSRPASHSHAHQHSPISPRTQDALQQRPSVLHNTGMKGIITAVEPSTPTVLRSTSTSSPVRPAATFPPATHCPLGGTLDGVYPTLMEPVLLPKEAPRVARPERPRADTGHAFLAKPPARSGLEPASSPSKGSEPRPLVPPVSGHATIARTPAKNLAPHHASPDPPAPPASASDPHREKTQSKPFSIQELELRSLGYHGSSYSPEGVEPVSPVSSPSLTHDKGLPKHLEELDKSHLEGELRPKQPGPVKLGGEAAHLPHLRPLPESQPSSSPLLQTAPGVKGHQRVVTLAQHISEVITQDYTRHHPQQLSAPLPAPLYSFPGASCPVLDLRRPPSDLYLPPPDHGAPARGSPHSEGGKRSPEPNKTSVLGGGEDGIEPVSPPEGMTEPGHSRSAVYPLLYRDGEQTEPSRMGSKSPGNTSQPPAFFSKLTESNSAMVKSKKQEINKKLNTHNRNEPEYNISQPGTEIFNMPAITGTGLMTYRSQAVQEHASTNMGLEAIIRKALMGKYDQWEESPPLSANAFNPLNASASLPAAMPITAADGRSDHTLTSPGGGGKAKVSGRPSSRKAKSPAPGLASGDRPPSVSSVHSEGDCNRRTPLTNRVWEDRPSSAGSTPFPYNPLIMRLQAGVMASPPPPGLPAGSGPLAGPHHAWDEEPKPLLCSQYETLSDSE
Histone deacetylase 1, sequence (Q13547 whole entry): as the sequence (Q13547 whole entry, looked up, one chain of several) above

IC50 [2]: 6.5 nM
IC50 [3]: 480 nM
inhibition [4]: Active
IC50 [5]: 320 nM
inhibition [6]: Active
IC50 [7]: 66 nM
Papp ([8]; MDCK, read-out: Papp): 7.3 ×10⁻⁶ cm/s
Papp ([8]; mdck): 10.6 ×10⁻⁶ cm/s
Papp [12]: 8.2 ×10⁻⁶ cm/s and 20 ×10⁻⁶ cm/s
IC50 [13]: 281 nM
inhibition [14]: Active
IC50 [15]: 2750 nM
inhibition [17]: Active
inhibition [18]: Active
IC50 [19]: 270 nM
inhibition [20]: Active
IC50 [23]: 25 nM
IC50 [25]: 350 nM
SMILES: CN(C)c1ccc(C(=O)N(CCCCCC(=O)NO)CC(=O)NCc2ccccc2)cc1
IC50 [1]: 1130 nM
IC50 [9]: 440 nM
inhibition [10]: Dose-dependent effect
Activity [11]: Non-Toxic
IC50 [16]: 470 nM
Activity [21]: Non-Toxic
inhibition [22]: Dose-dependent effect
IC50 [24]: 1620 nM

From ChEMBL document CHEMBL4014348, “Design, Multicomponent Synthesis, and Anticancer Activity of a Focused Histone Deacetylase (HDAC) Inhibitor Library with Peptoid-Based Cap Groups” (J Med Chem, 2017)
